{
  "source": "patent US11744799B2",
  "about": "“Topical composition” (MC2 Therapeutics Limited, priority 2017, dated 2023)",
  "test": "Stability of 1% crisaborole solution in 50% ethanol/citrate buffer at various pH",
  "type": "physicochemical",
  "conditions": "for % peak purity: 1% solution, 50% ethanol, 40° C. for one month",
  "experimental": "The sample was stored in a closed, airtight glass container with headspace comprising no more than 5% by volume of the total usable volume of the container. Each container containing a sample was stored at a constant temperature of 40° C. in a standard laboratory incubator (for example, Memmert IF260PLUS Incubator). The storage period for each sample was […]. The chemical stability of the crisaborole in each sample after the storage period was measured by a HPLC method. The HPLC method was as follows: A 1% solution of crisaborole was prepared with 50% ethanol and a citrate buffer to pH 5.5. The system was then stored at 40° C. for one month under the conditions of Example 3 and gave an 84% peak purity. Equivalent solutions were prepared and tested at pH 4.5, 6.5, 7.5 and 8.5.",
  "note": "“And” between values parts separate entries of the source, which are not always exact repeats. Identical values can stand only once.",
  "data": [
    {"compound": "N#Cc1ccc(Oc2ccc3c(c2)COB3O)cc1", "note": "[crisaborole]", "values": [
      {"measurement": "pH at which chemical stability is highest", "setting": "aqueous medium, pH 4.5 to 8.5 tested", "value": 5.5},
      {"measurement": "% peak purity", "setting": "pH 4.5", "value": 79.5, "unit": "%"},
      {"measurement": "% peak purity", "setting": "pH 5.5, citrate buffer", "value": "84% and 84.1%"},
      {"measurement": "% peak purity", "setting": "pH 6.5", "value": 79.8, "unit": "%"},
      {"measurement": "% peak purity", "setting": "pH 7.5", "value": 72.1, "unit": "%"},
      {"measurement": "% peak purity", "setting": "pH 8.5", "value": 51.3, "unit": "%"}
    ]}
  ]
}
